Assay results published in US6358885B1, “Substituted phenylheterocyclic herbicides” (Mississippi State University, priority 1992, dated 2002).

Tests used:
blackgrass [1] = assay: Test C preemergence/postemergence greenhouse plant response rating 0 to 100; format: in vivo, Alopecurus myosuroides; settings: POSTEMERGENCE; for Plant response rating, Blackgrass: 0 to 100 scale
Summary of the method: (§1)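 Compounds in non-phytotoxic solvent applied preemergence to sandy loam one day after planting, postemergence at the 1–4 leaf stage, or to ~2.5 cm floodwater over silt loam.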

barnyardgrass = assay: Test C flood test plant response rating 0 to 100; format: in vivo, Echinochloa crus-galli; settings: for Plant response rating Barnyardgrass 2: flood test species listed under POSTEMERGENCE, 0 to 100 scale
Summary of the method: as §1

wheat = assay: Test C preemergence/postemergence greenhouse plant response rating 0 to 100; format: in vivo, Triticum aestivum; settings: POSTEMERGENCE; for Plant response rating, Wheat: 0 to 100 scale
Summary of the method: as §1

morningglory = assay: Test B preemergence/postemergence greenhouse plant response rating 0 to 10; format: in vivo, Ipomoea hederacea; settings: 0 to 10 scale
Summary of the method: (§2)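 Planted seeds are treated preemergence with compound dissolved in a non-phytotoxic solvent, while postemergence applications go onto plants of two to eighteen cm. Plants stay in the greenhouse twelve to sixteen days and are then rated visually relative to controls.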

cotton = assay: Test C preemergence/postemergence greenhouse plant response rating 0 to 100; format: in vivo, Gossypium hirsutum; settings: POSTEMERGENCE; for Plant response rating, Cotton: 0 to 100 scale
Summary of the method: as §1

wild oat = assay: Test B preemergence/postemergence greenhouse plant response rating 0 to 10; format: in vivo, Avena fatua; settings: 0 to 10 scale
Summary of the method: as §2

bedstraw = assay: as above; format: in vivo, Galium aparine; settings: 0 to 10 scale
Summary of the method: as §2

pigweed = assay: Test C preemergence/postemergence greenhouse plant response rating 0 to 100; format: in vivo, Amaranthusretroflexus; settings: POSTEMERGENCE; for Plant response rating Pigweed: 0 to 100 scale
Summary of the method: as §1

blackgrass [2] = assay: Test B preemergence/postemergence greenhouse plant response rating 0 to 10; format: in vivo, Alopecurus myosuroides; settings: 0 to 10 scale
Summary of the method: as §2

ryegrass = assay: Test C preemergence/postemergence greenhouse plant response rating 0 to 100; format: in vivo, Lolium multiflorum; settings: POSTEMERGENCE; for Plant response rating Ryegrass: 0 to 100 scale
Summary of the method: as §1

cocklebur = assay: Test B preemergence/postemergence greenhouse plant response rating 0 to 10; format: in vivo, Xanthium pensylvanicum; settings: 0 to 10 scale
Summary of the method: as §2

sugar beet = assay: as above; format: in vivo, Beta vulgaris; settings: 0 to 10 scale
Summary of the method: as §2

[3] = POSTEMERGENCE section, flood test, Rate 4 g/ha
[4] = Rate 16 g/ha, under POSTEMERGENCE head (flood test species)

CCC(C)Oc1cc(-c2nn3c(c2Cl)CCCC3)c(F)cc1Cl (stereo not drawn) [Compound 48]
Plant response rating, Blackgrass (blackgrass [1]; 62 g/ha): 50
Plant response rating, Blackgrass (blackgrass [1]; 250 g/ha): 60
Plant response rating (0 to 100), Blackgrass (blackgrass [1]; Rate 4 g/ha): 20
Plant response rating (0 to 100), Blackgrass (blackgrass [1]; Rate 16 g/ha): 30
Plant response rating (0 to 100), Barnyardgrass 2 (barnyardgrass; [3]): 20
Plant response rating (0 to 100), Barnyardgrass 2 (barnyardgrass; [4]): 40
Plant response rating Barnyardgrass 2 (barnyardgrass; 62 g/ha): 95
Plant response rating Barnyardgrass 2 (barnyardgrass; 250 g/ha): 100
Plant response rating, Wheat (wheat; 62 g/ha): 30
Plant response rating, Wheat (wheat; 250 g/ha): 50
Plant response rating (0 to 100), Wheat (wheat; Rate 4 g/ha): 10
Plant response rating (0 to 100), Wheat (wheat; Rate 16 g/ha): 20
Plant response rating, Morningglory (morningglory; POSTEMERGENCE, Rate 50 g/ha): 10
Plant response rating, Morningglory (morningglory; PREEMERGENCE, Rate 50 g/ha): 1
Plant response rating, Morningglory (morningglory; Rate 200 g/ha, POSTEMERGENCE): 10
Plant response rating, Morningglory (morningglory; Rate 200 g/ha, PREEMERGENCE): 3
Plant response rating, Cotton (cotton; 62 g/ha): 100
Plant response rating, Cotton (cotton; 250 g/ha): 100
Plant response rating (0 to 100), Cotton (cotton; Rate 4 g/ha): 90
Plant response rating (0 to 100), Cotton (cotton; Rate 16 g/ha): 100
Plant response rating, Wild oat (wild oat; POSTEMERGENCE, Rate 50 g/ha): 4
Plant response rating, Wild oat (wild oat; PREEMERGENCE, Rate 50 g/ha): 0
Plant response rating, Wild oat (wild oat; Rate 200 g/ha, POSTEMERGENCE): 6
Plant response rating, Bedstraw (bedstraw; POSTEMERGENCE, Rate 50 g/ha): 9
Plant response rating, Bedstraw (bedstraw; POSTEMERGENCE, Rate 200 g/ha): 9
Plant response rating, Bedstraw (bedstraw; PREEMERGENCE, Rate 50 g/ha): 3
Plant response rating, Bedstraw (bedstraw; Rate 200 g/ha, PREEMERGENCE): 9
Plant response rating Pigweed (pigweed; 62 g/ha): 100
Plant response rating Pigweed (pigweed; 250 g/ha): 100
Plant response rating (0 to 100), Pigweed (pigweed; Rate 4 g/ha): 80
Plant response rating (0 to 100), Pigweed (pigweed; Rate 16 g/ha): 90
Plant response rating, Blackgrass (blackgrass [2]; POSTEMERGENCE, Rate 50 g/ha): 6
Plant response rating, Blackgrass (blackgrass [2]; POSTEMERGENCE, Rate 200 g/ha): 6
Plant response rating, Blackgrass (blackgrass [2]; PREEMERGENCE, Rate 50 g/ha): 0
Plant response rating, Blackgrass (blackgrass [2]; Rate 200 g/ha, PREEMERGENCE): 5
Plant response rating Ryegrass (ryegrass; 62 g/ha): 30
Plant response rating Ryegrass (ryegrass; 250 g/ha): 50
Plant response rating (0 to 100), Ryegrass (ryegrass; Rate 4 g/ha): 10
Plant response rating (0 to 100), Ryegrass (ryegrass; Rate 16 g/ha): 20
Plant response rating, Cocklebur (cocklebur; POSTEMERGENCE, Rate 50 g/ha): 7
Plant response rating, Cocklebur (cocklebur; POSTEMERGENCE, Rate 200 g/ha): 9
Plant response rating, Cocklebur (cocklebur; Rate 200 g/ha, PREEMERGENCE): 0
Plant response rating, Sugar beet (sugar beet; POSTEMERGENCE, Rate 50 g/ha): 10
Plant response rating, Sugar beet (sugar beet; PREEMERGENCE, Rate 50 g/ha): 9
Plant response rating, Sugar beet (sugar beet; Rate 200 g/ha, POSTEMERGENCE): 10
Plant response rating, Sugar beet (sugar beet; Rate 200 g/ha, PREEMERGENCE): 10

Fc1cc(Cl)c(OCCCl)cc1-c1nn2c(c1Cl)CCCC2 [Compound 49]
Plant response rating, Blackgrass (blackgrass [1]; 62 g/ha): 50
Plant response rating, Blackgrass (blackgrass [1]; 250 g/ha): 70
Plant response rating (0 to 100), Blackgrass (blackgrass [1]; Rate 4 g/ha): 10
Plant response rating (0 to 100), Blackgrass (blackgrass [1]; Rate 16 g/ha): 40
Plant response rating (0 to 100), Barnyardgrass 2 (barnyardgrass; [3]): 90
Plant response rating (0 to 100), Barnyardgrass 2 (barnyardgrass; [4]): 100
Plant response rating Barnyardgrass 2 (barnyardgrass; 62 g/ha): 100
Plant response rating Barnyardgrass 2 (barnyardgrass; 250 g/ha): 100
Plant response rating, Wheat (wheat; 62 g/ha): 50
Plant response rating, Wheat (wheat; 250 g/ha): 70
Plant response rating (0 to 100), Wheat (wheat; Rate 4 g/ha): 10
Plant response rating (0 to 100), Wheat (wheat; Rate 16 g/ha): 20
Plant response rating, Morningglory (morningglory; POSTEMERGENCE, Rate 50 g/ha): 10
Plant response rating, Morningglory (morningglory; PREEMERGENCE, Rate 50 g/ha): 1
Plant response rating, Morningglory (morningglory; Rate 200 g/ha, POSTEMERGENCE): 10
Plant response rating, Morningglory (morningglory; Rate 200 g/ha, PREEMERGENCE): 6
Plant response rating, Cotton (cotton; 62 g/ha): 100
Plant response rating, Cotton (cotton; 250 g/ha): 100
Plant response rating (0 to 100), Cotton (cotton; Rate 4 g/ha): 90
Plant response rating (0 to 100), Cotton (cotton; Rate 16 g/ha): 90
Plant response rating, Wild oat (wild oat; POSTEMERGENCE, Rate 50 g/ha): 3
Plant response rating, Wild oat (wild oat; PREEMERGENCE, Rate 50 g/ha): 0
Plant response rating, Wild oat (wild oat; Rate 200 g/ha, POSTEMERGENCE): 4
Plant response rating, Bedstraw (bedstraw; POSTEMERGENCE, Rate 50 g/ha): 9
Plant response rating, Bedstraw (bedstraw; POSTEMERGENCE, Rate 200 g/ha): 9
Plant response rating, Bedstraw (bedstraw; PREEMERGENCE, Rate 50 g/ha): 8
Plant response rating, Bedstraw (bedstraw; Rate 200 g/ha, PREEMERGENCE): 9
Plant response rating Pigweed (pigweed; 62 g/ha): 100
Plant response rating Pigweed (pigweed; 250 g/ha): 100
Plant response rating (0 to 100), Pigweed (pigweed; Rate 4 g/ha): 70
Plant response rating (0 to 100), Pigweed (pigweed; Rate 16 g/ha): 100
Plant response rating, Blackgrass (blackgrass [2]; POSTEMERGENCE, Rate 50 g/ha): 4
Plant response rating, Blackgrass (blackgrass [2]; POSTEMERGENCE, Rate 200 g/ha): 6
Plant response rating, Blackgrass (blackgrass [2]; PREEMERGENCE, Rate 50 g/ha): 0
Plant response rating, Blackgrass (blackgrass [2]; Rate 200 g/ha, PREEMERGENCE): 2
Plant response rating Ryegrass (ryegrass; 62 g/ha): 50
Plant response rating Ryegrass (ryegrass; 250 g/ha): 60
Plant response rating (0 to 100), Ryegrass (ryegrass; Rate 4 g/ha): 20
Plant response rating (0 to 100), Ryegrass (ryegrass; Rate 16 g/ha): 40
Plant response rating, Cocklebur (cocklebur; POSTEMERGENCE, Rate 50 g/ha): 9
Plant response rating, Cocklebur (cocklebur; POSTEMERGENCE, Rate 200 g/ha): 8
Plant response rating, Cocklebur (cocklebur; PREEMERGENCE, Rate 50 g/ha): 0
Plant response rating, Cocklebur (cocklebur; Rate 200 g/ha, PREEMERGENCE): 0
Plant response rating, Sugar beet (sugar beet; POSTEMERGENCE, Rate 50 g/ha): 10
Plant response rating, Sugar beet (sugar beet; PREEMERGENCE, Rate 50 g/ha): 9
Plant response rating, Sugar beet (sugar beet; Rate 200 g/ha, POSTEMERGENCE): 10
Plant response rating, Sugar beet (sugar beet; Rate 200 g/ha, PREEMERGENCE): 10
